Test results as given in US7071197B2, “N,N-disubstituted diazocycloalkanes” (Recordati S.A., priority 2002, dated 2006).
Like-named read-outs stand apart in the source and are kept apart here.

Legend:
[1] = target: T1, human 5HT1A-serotonergic receptor (Homo sapiens, UniProt P08908); experiment: [3H]8-OH-DPAT radioligand binding to human recombinant 5-HT1A receptors; details: for Ki: [3H]8-OH-DPAT, HeLa cell membranes, read-out: Affinity: Ki
T1 construct: expressed in transfected cells
T1 sequence (P08908 1-422): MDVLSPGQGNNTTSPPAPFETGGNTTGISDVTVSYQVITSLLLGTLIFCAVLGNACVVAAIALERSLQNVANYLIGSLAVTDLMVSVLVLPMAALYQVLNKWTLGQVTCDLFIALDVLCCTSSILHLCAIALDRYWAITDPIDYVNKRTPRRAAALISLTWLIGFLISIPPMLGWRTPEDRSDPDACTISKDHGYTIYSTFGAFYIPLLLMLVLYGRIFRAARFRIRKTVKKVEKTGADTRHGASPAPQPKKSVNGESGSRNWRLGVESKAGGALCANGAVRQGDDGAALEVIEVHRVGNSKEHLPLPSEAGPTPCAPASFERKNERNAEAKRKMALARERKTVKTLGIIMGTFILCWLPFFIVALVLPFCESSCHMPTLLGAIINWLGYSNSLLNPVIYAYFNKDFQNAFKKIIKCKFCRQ
Procedure: (§1) A genomic clone coding for the human 5HT1A-serotonergic receptor was stably transfected in a human cell line (HeLa). HeLa cells were grown as monolayers in Dulbecco's modified Eagle medium (DMEM), containing 10% fetal bovine serum, gentamycin (0.1 mg/ml) and 5% carbon dioxide, at 37° C. The cells were detached from the growth flask at 95% confluence by a cell scraper and were lysed in cold 5 mM Tris and 5 mM EDTA buffer (pH 7.4). The homogenates were centrifuged at 40000×g×20 minutes and the pellets were resuspended in a small volume of cold 5 mM Tris and 5 mM EDTA buffer (pH 7.4) and immediately frozen and stored at −70° C. until use.
[^3H]8-OH-DPAT binding: on the day of experiment, the cell membranes were resuspended in incubation buffer: 50 mM Tris HCl (pH 7.4), 2.5 mM MgCl2, […] (Fargin et al., Nature 335, 358–360, 1988). The membranes were incubated in a final volume of 1 ml for 30 minutes at 30° C. with 1 nM [^3H]8-OH-DPAT, in the absence or presence of the test compounds. Non-specific binding was determined in the presence of 10 μM 5-HT. Incubation was stopped by addition of cold Tris-HCl buffer and rapid filtration through a 0.2%-polyethyleneimine-pretreated Whatman-GF/B or Schleicher-&-Schuell-GF52 filter.
The affinity of the tested compounds was evaluated as inhibition of specific binding of the radioligand to 5-HT1A receptors (IC50) by using the non-linear curve-fitting program (De Lean et al., Am. J. Physiol. 235, E97-E102, 1978). The IC50 value was converted to an affinity constant (Ki) by the equation of Cheng et al., Biochem. Pharmacol. 22, 3099–3108 (1973).

[2] = target: T2, human cloned 5-HT1A receptors (Homo sapiens, UniProt P08908); experiment: [35S]GTPγS binding, membranes of HeLa cells transfected with human cloned 5-HT1A receptors; type: biochemical; details: 5-HT maximal stimulation taken as 100%
T2 construct: expressed in transfected cells
T2 sequence (P08908 1-422): T1 sequence (P08908 1-422)
Procedure: as §1
[^35S]GTPγS binding: on the experimental day, cell membranes from HeLa cells transfected with human cloned 5-HT1A receptors were resuspended in buffer pH 7.4 containing 20 mM HEPES, 3 mM MgCl2 and 120 mM NaCl (Stanton, J. A.; Beer, M. S. Eur. J. Pharmacol. 320, 267–275, 1997). The membranes were incubated with 10 μM GDP and decreasing concentrations of test drugs (from 100 μM to 0.1 nM) or decreasing concentrations of 5-HT (from 100 μM to 0.1 nM, reference curve) for 20 min at 30° C. in a final volume of about 0.25 ml. [^35S]GTPγS ([…] in 10 μl) was added to samples and incubated for a further 30 min at 30° C. Non-specific binding was determined in the presence of 10 μM GTPγS. The incubation was stopped by addition of ice-cold HEPES buffer and rapid filtration on Unifilter GF/C filters, using a Filtermate cell harvester (Packard). The filters were washed four times with total 1.2 ml of same buffer. Radioactivity was counted by liquid scintillation spectrometry with efficiency >90% (TopCount Packard). Stimulation of [^35S]GTPγS binding induced by the compounds tested was espressed as % increase in binding above basal value, being the maximal stimulation observed with 5-HT taken as 100%. The concentration-response curve of the agonistic activity was analyzed by non linear fitting program (De Lean et al., Am. J. Physiol. 235, E97-E102, 1978).
A stimulation of [^35S]GTPγS binding represented the functional correlate of the binding of an agonist compound at the 5-HT1A receptors. Stimulation induced by the endogenous ligand 5-HT was considered the maximal stimulation attainable.

[3] = test system: rhythmic bladder-voiding contractions in anaesthetised rats; experiment: Rhythmic bladder-voiding contractions induced by bladder filling in anaesthetised rats; type: in vivo, rat; details: for ED10 min (extrapolated dose inducing 10 minutes of disappearance of the contractions) / ED50: intravenous administration, anaesthetised rats; for ED50: Rattus norvegicus
Procedure: Female Sprague-Dawley rats weighing 225–275 g (Crl: CD® (SD) IGS BR, Charles River Italia) were used. The animals were housed with free access to food and water and maintained on a forced 12-hour alternating light-dark cycle at 22–24° C. for at least one week, except during the experiment. The activity on rhythmic bladder voiding contractions was evaluated according to the method of Dray (Dray J., Pharmacol. Methods, 13:157, 1985), with some modifications as in Guarneri (Guarneri, Pharmacol. Res. 27:173, 1993). Briefly, the rats were anaesthetised by subcutaneous injection of 1.25 g/kg (5 ml/kg) urethane, after which the urinary bladder was catheterised via the urethra using PE 50 polyethylene tubing filled with physiological saline. The catheter was tied in place with a ligature around the external urethral orifice and was connected to conventional pressure transducers (Statham P23 ID/P23 XL). […] The bladder was then filled via the recording catheter by incremental volumes of warm (37° C.) saline until reflex bladder-voiding contractions occurred (usually 0.81.5 ml). For intravenous injection of bioactive compounds, PE 50 polyethylene tubing filled with physiological saline was inserted into the jugular vein.
From the cystometrogram, the number of contractions recorded 15 minutes before (basal values) and after treatment, as well as the mean amplitude of these contractions (mean height of the peaks in mmHg), was evaluated.
Since most compounds produced an effect that was relatively rapid in onset and led to a complete cessation of bladder contractions, bioactivity was conveniently estimated by measuring the duration of bladder quiescence (i.e., the length of the time during which no contractions occurred). The number of tested animals showing a reduction in the number of contractions higher than 30% of that observed in the basal period was recorded too.
The extrapolated doses which induced a reduction in the number of contractions greater than 30% in 50% of the treated rats (ED50) were evaluated by the method of Bliss (Bliss C. I., Quart J. Pharm. Pharmacol. 11, 192–216, 1938).

Compound	Ki [1] [nM]	Functional effect ([35S]GTPγS binding) [2]	further results
O[C@@H](C1CCCCC1)[C@H](CCN1CCN(c2ccccc2OCC(F)(F)F)CC1)c1ccccc1F (racemic) [Ex. 3, 1-[(RS,SR)-4-cyclohexyl-4-hydroxy-3-(2-fluorophenyl)-butyl]-4-[2-(2,2,2-trifluoroethoxy)-phenyl]-piperazine]	0.29	Neutral antagonist	
COc1ccccc1N1CCN(CC[C@@H](c2ccccc2F)[C@H](O)C2CCCCC2)CC1 [Ex. 1X, 1-[(3S,4R)-4-cyclohexyl-4-hydroxy-3-(2-fluorophenyl)-butyl]-4-(2-methoxyphenyl)-piperazine]	0.5	Partial agonist	
COc1ccccc1N1CCN(CCC(c2ccccc2F)C(O)C2CCCCC2)CC1 (stereo not shown) [Ex. 2, 1-[(RR-SS)-4-cyclohexyl-4-hydroxy-3-(2-fluorophenyl)-butyl]-4-(2-methoxyphenyl)-piperazine]	0.29	Neutral antagonist	potency at the 5-HT1A receptor compared with Ex. 5 ([1]; statistical signficance p<0.01): more potent than Ex. 5
COc1ccccc1N1CCN(CC[C@@H](c2ccccc2F)[C@@H](O)C2CCCCC2)CC1 [Ex. 2Y, 1-[(3S,4S)-4-cyclohexyl-4-hydroxy-3-(2-fluorophenyl)-butyl]-4-(2-methoxyphenyl)-piperazine]	0.98	Partial agonist	
OC(C1CCCCC1)C(CCN1CCN(c2ccccc2OCC(F)(F)F)CC1)c1ccccc1F (stereo not drawn) [Ex. 4, 1-[(RR,SS)-4-cyclohexyl-4-hydroxy-3-(2-fluorophenyl)-butyl]-4-[2-(2,2,2-trifluoroethoxy)-phenyl]-piperazine]	0.68	Neutral antagonist	
Cc1c(-c2ccccc2)oc2c(C(=O)OCCN3CCCCC3)cccc2c1=O [Flavoxate]			ED10 min (extrapolated dose inducing 10 minutes of disappearance of the contractions) [3]: >10 mg/kg
CCN(CC)CC#CCOC(=O)C(O)(c1ccccc1)C1CCCCC1 (stereo not shown) [Oxybutynin]			ED50 ([3]; n.a. = not active, no significant reduction of the height of the peaks, read-out: ED50 (amplitude) (extrapolated dose inducing a 30% reduction of amplitude of the contractions in 50% of treated rats)): 0.24 mg/kg; ED50 ([3]; read-out: ED50 (frequency) (extrapolated dose inducing a reduction of the number of contractions > 30% in 50% of treated rats)): > 10 mg/kg; blockade of bladder contractions ([3]; at 240 μg/kg): did not cause a blockade of bladder contractions; ED10 min (extrapolated dose inducing 10 minutes of disappearance of the contractions) [3]: 7.77 mg/kg
